# Data: US20240218022A1, “ANTI-VISTA MACROCYCLIC PEPTIDES AND COMPOSITIONS” (BRISTOL-MYERS SQUIBB COMPANY, priority 2022, published 2024)
# Like-named read-outs stand apart in the source and are kept apart here. Starred links: 1 amine or outer side, 2 acyl side, 3 side chain; linkers in the order of their positions; H or OH if unused. Positions of bridges follow the written chain, without caps; N, C: chain ends. Non-standard residues stand in square brackets, D forms with d. Residues, ends and D or L forms follow the SMILES beside them. Phe(4-COOH) = N[C@@H](Cc1ccc(C(=O)O)cc1)C(=O)O; Phe(3-Me) = Cc1cccc(C[C@H](N)C(=O)O)c1; γGlu = O=C(O)[C@H](CCC(=O)[*:2])N[*:1]; 2Nal = N[C@@H](Cc1ccc2ccccc2c1)C(=O)O; βAsp = O=C(O)[C@H](CC(=O)[*:2])N[*:1]; Ahp(2) = CCCCC[C@H](N)C(=O)O; NMeNle = CCCC[C@H](NC)C(=O)O; Tle = CC(C)(C)[C@H](N)C(=O)O; NHexGly = CCCCCCNCC(=O)O; Nle = CCCC[C@H](N)C(=O)O; Aun = NCCCCCCCCCCC(=O)O; Nva = CCC[C@H](N)C(=O)O; AEEA = NCCOCCOCC(=O)O
# Biological target: T1, mouse VISTA (mVISTA) (Mus musculus, UniProt Q9D659)
# T1 construct: expressed in transfected cells; host or cells: Human embryonic kidney 293T cells
# T1 sequence (Q9D659 33-308): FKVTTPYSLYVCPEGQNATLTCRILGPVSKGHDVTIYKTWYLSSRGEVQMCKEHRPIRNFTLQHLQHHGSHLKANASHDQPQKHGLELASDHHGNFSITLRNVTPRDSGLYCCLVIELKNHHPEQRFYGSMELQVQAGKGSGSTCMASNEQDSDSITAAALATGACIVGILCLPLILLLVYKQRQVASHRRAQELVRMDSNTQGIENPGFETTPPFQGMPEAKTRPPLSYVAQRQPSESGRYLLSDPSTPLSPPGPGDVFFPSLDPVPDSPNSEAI
# Test: Cell-Based Binding High-Content Assay For mVISTA (HC CBA mVISTA)
# How it was run: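 Read-out: Alexa 647–streptavidin signal imaged on fixed, Hoechst-stained mVISTA-293T cells, with IC50 taken from a four-parameter logistic curve. Compounds competed with 2 nM biotinylated peptide for 30 min at room temperature, tested under both no-wash and wash (1 h compound, media exchange, 1 h) formats.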
Structure (SMILES),IC50 (read-out: HC CBA mVISTA IC50) [nM],other results
CCCCCCN1CC(=O)N[C@@H](Cc2ccc(O)cc2)C(=O)N[C@@H](CCCC)C(=O)N[C@@H](CC(N)=O)C(=O)N[C@@H](CCCNC(=N)N)C(=O)N(C)[C@@H](CCCC)C(=O)N[C@@H](CCCCC)C(=O)N2CCC[C@H]2C(=O)N[C@@H](C(C)(C)C)C(=O)N[C@@H](CO)C(=O)N[C@H](C(=O)NCCOCCOCC(=O)N[C@@H](CCC(=O)NCCOCCOCC(=O)NCCCCCCCCCCC(=O)O)C(=O)O)CSCC(=O)N[C@@H](Cc2ccc(C(=O)O)cc2)C(=O)N[C@@H](Cc2c[nH]c3ccccc23)C(=O)N[C@@H](CC(=O)O)C1=O [compound 2256] ({CH2CO}-[Phe(4-COOH)]WD[NHexGly]Y[Nle]NR[NMeNle][Ahp(2)]P[Tle]SC[AEEA][γGlu][AEEA][Aun]-OH; thioether N-14),13.8,–
CCCCCCN1CC(=O)N[C@@H](Cc2ccc(O)cc2)C(=O)N[C@@H](CC(C)C)C(=O)N[C@@H](CC(N)=O)C(=O)N[C@@H](CCCNC(=N)N)C(=O)N(C)[C@@H](CCCC)C(=O)N[C@@H](CCCCC)C(=O)N2CCC[C@H]2C(=O)N[C@@H](C(C)(C)C)C(=O)N[C@@H](CO)C(=O)N[C@H](C(=O)NCCOCCOCC(=O)N[C@@H](CCC(=O)NCCOCCOCC(=O)NCCCCCCCCCCC(=O)O)C(=O)O)CSCC(=O)N[C@@H](Cc2ccccc2)C(=O)N[C@@H](Cc2c[nH]c3ccccc23)C(=O)N[C@@H](CC(=O)O)C1=O [compound 2268] ({CH2CO}-FWD[NHexGly]YLNR[NMeNle][Ahp(2)]P[Tle]SC[AEEA][γGlu][AEEA][Aun]-OH; thioether N-14),16.1,–
CCCCCCN1CC(=O)N[C@@H](Cc2ccc(O)cc2)C(=O)N[C@@H](CCCC)C(=O)N[C@@H](CC(N)=O)C(=O)N[C@@H](CCCNC(=N)N)C(=O)N(C)[C@@H](CC(C)C)C(=O)N[C@@H](CCCCC)C(=O)N2CCC[C@H]2C(=O)N[C@@H](C(C)C)C(=O)N[C@@H](CO)C(=O)N[C@H](C(=O)NCCOCCOCC(=O)N[C@@H](CC(=O)O)C(=O)NCCOCCOCC(=O)NCCCCCCCCCCC(=O)O)CSCC(=O)N[C@@H](Cc2ccccc2)C(=O)N[C@@H](Cc2c[nH]c3ccccc23)C(=O)N[C@@H](CC(=O)O)C1=O (stereo in doubt) [compound 2314],–,"IC50 (cell-based binding high-content assay, read-out: HC CBA miPrISTA IC50): 34.6 nM"
CCCCCCN1CC(=O)N[C@@H](Cc2ccc(O)cc2)C(=O)N[C@@H](CCCC)C(=O)N[C@@H](CC(N)=O)C(=O)N[C@@H](CCCNC(=N)N)C(=O)N(C)[C@@H](CCCC)C(=O)N[C@@H](CCCCC)C(=O)N2CCC[C@H]2C(=O)N[C@@H](C(C)C)C(=O)N[C@@H](CC(=O)O)C(=O)N[C@H](C(=O)NCC(=O)O)CSCC(=O)N[C@@H](Cc2cccc(C)c2)C(=O)N[C@@H](Cc2ccc(O)cc2)C(=O)N[C@@H](CC(=O)O)C1=O [compound 1450] ({CH2CO}-[Phe(3-Me)]YD[NHexGly]Y[Nle]NR[NMeNle][Ahp(2)]PVDCG-OH; thioether N-14),–,"IC50 (the 19th table, scaffold drawing 22, read-out: HC CBA mVISTA IC50): 7 nM"
CCCCCCN1CC(=O)N[C@@H](Cc2ccc(O)cc2)C(=O)N[C@@H](CCC)C(=O)N[C@@H](CC(N)=O)C(=O)N[C@@H](CCCNC(=N)N)C(=O)N(C)[C@@H](CCCC)C(=O)N[C@@H](CCCCC)C(=O)N2CCC[C@H]2C(=O)N[C@@H](C(C)(C)C)C(=O)N[C@@H](CC(=O)O)C(=O)N[C@H](C(=O)NCCOCCOCC(=O)N[C@@H](CCC(=O)NCCOCCOCC(=O)NCCCCCCCCCCC(=O)O)C(=O)O)CSCC(=O)N[C@@H](Cc2ccccc2)C(=O)N[C@@H](Cc2c[nH]c3ccccc23)C(=O)N[C@@H](CC(=O)O)C1=O [compound 2255] ({CH2CO}-FWD[NHexGly]Y[Nva]NR[NMeNle][Ahp(2)]P[Tle]DC[AEEA][γGlu][AEEA][Aun]-OH; thioether N-14),26.8,–

# Continued, in another order:
IC50 (read-out: HC CBA mVISTA IC50) [nM],Structure (SMILES),other results
20.3,CCCCCCN1CC(=O)N[C@@H](Cc2ccc(O)cc2)C(=O)N[C@@H](CCCC)C(=O)N[C@@H](CC(N)=O)C(=O)N[C@@H](CCCNC(=N)N)C(=O)N(C)[C@@H](CCCC)C(=O)N[C@@H](CCCCC)C(=O)N2CCC[C@H]2C(=O)N[C@@H](C(C)C)C(=O)N[C@@H](CC(N)=O)C(=O)N[C@H](C(=O)NCC(=O)O)CSCC(=O)N[C@@H](Cc2ccccc2)C(=O)N[C@@H](Cc2c[nH]c3ccccc23)C(=O)N[C@@H](CC(=O)O)C1=O [Example 1381] ({CH2CO}-FWD[NHexGly]Y[Nle]NR[NMeNle][Ahp(2)]PVNCG-OH; thioether N-14),–
22.2,CCCCCCN1CC(=O)N[C@@H](Cc2ccc(O)cc2)C(=O)N[C@@H](CCCC)C(=O)N[C@@H](CC(=O)O)C(=O)N[C@@H](CCCNC(=N)N)C(=O)N(C)[C@@H](CCCC)C(=O)N[C@@H](CCCCC)C(=O)N2CCC[C@H]2C(=O)N[C@@H](C(C)(C)C)C(=O)N[C@@H](CC(=O)O)C(=O)N[C@H](C(=O)N[C@@H](CC(=O)O)C(N)=O)CSCC(=O)N[C@@H](Cc2ccccc2)C(=O)N[C@@H](Cc2c[nH]c3ccccc23)C(=O)N[C@@H](CC(=O)O)C1=O [Example 1377] ({CH2CO}-FWD[NHexGly]Y[Nle]DR[NMeNle][Ahp(2)]P[Tle]DCD-NH2; thioether N-14),–
30.3,CCCCCCN1CC(=O)N[C@@H](Cc2ccc(O)cc2)C(=O)N[C@@H](CCCC)C(=O)N[C@@H](CC(N)=O)C(=O)N[C@@H](CCCNC(=N)N)C(=O)N(C)[C@@H](CCCC)C(=O)N[C@@H](CCCCC)C(=O)N2CCC[C@H]2C(=O)N[C@@H](C(C)(C)C)C(=O)N[C@@H](CO)C(=O)N[C@H](C(=O)N[C@@H](CC(=O)NCCOCCOCC(=O)NCCCCCCCCCCC(=O)O)C(=O)O)CSCC(=O)N[C@@H](Cc2ccc3ccccc3c2)C(=O)N[C@@H](Cc2ccc(O)cc2)C(=O)N[C@@H](CC(=O)O)C1=O [Example 2195] ({CH2CO}-[2Nal]YD[NHexGly]Y[Nle]NR[NMeNle][Ahp(2)]P[Tle]SC[βAsp][AEEA][Aun]-OH; thioether N-14),–
